The values that follow come from ChEMBL document CHEMBL5505986, “Design, synthesis and biological evaluation of thiazolyl-halogenated pyrroles or pyrazoles as novel antibacterial and antibiofilm agents” (Eur J Med Chem, 2024).

Converted amounts (≈) assume the structure as drawn. The source made the active and inactive calls. No cut-off for these calls is given here. Where only a bound is given, the exact number is not on record here.

The subject of series [1] is Enterococcus faecium. In words: Antibacterial activity against clinical isolate Enterococcus faecium assessed as reduction in bacterial growth incubated for 24 hrs by broth microdilution method. In kind it is functional.
For series [2], the system named is Staphylococcus aureus. In words: Antibacterial activity against vancomycin-intermediate resistant Staphylococcus aureus ATCC 700699/Mu50 assessed as reduction in bacterial growth incubated for 24 hrs by broth microdilution method. In kind it is functional.
Series [3] deals with Streptococcus pyogenes. In words: Antibacterial activity against Streptococcus pyogenes ATCC 12204 assessed as reduction in bacterial growth incubated for 24 hrs by broth microdilution method. Type of series: functional.
The test system of the next series is Klebsiella pneumoniae. Kind of series: Antibacterial activity against Klebsiella pneumoniae ATCC 13883 assessed as reduction in bacterial growth incubated for 24 hrs by broth microdilution method. In kind it is functional.
The test system of series [4] is Enterococcus faecium. Kind of series: Antibiofilm activity against Enterococcus faecium clinical isolate at sub-MIC doses measured after 24 hrs by crystal violet staining based analysis. In kind it is functional.
A further series deals with Acinetobacter baumannii. In words: Antibacterial activity against Acinetobacter baumannii ATCC 19606 assessed as reduction in bacterial growth incubated for 24 hrs by broth microdilution method. In kind it is functional.
In series [5] the test system is Staphylococcus aureus. Kind of series: Antibiofilm activity against vancomycin-intermediate resistant Staphylococcus aureus ATCC 700699/Mu50 at 1/8 time MIC measured after 24 hrs by crystal violet staining based analysis. In kind it is functional, organism-based.
In series [6] the test system is Pseudomonas aeruginosa. In words: Antibiofilm activity against Pseudomonas aeruginosa ATCC 47085 at 8 to 16 ug/ml measured after 24 hrs by crystal violet staining based analysis. Conditions: dose 8-16 µg/ml. In kind it is functional, organism-based.
In series [7] the test system is Enterococcus faecium. In words: Antibiofilm activity against Enterococcus faecium clinical isolate at 1/8 times MIC measured after 24 hrs by crystal violet staining based analysis. Type of series: functional, organism-based.
For series [8], the system named is Pseudomonas aeruginosa. Kind of series: Antibiofilm activity against Pseudomonas aeruginosa ATCC 47085 at sub-MIC doses measured after 24 hrs by crystal violet staining based analysis. In kind it is functional.
Series [9] deals with Staphylococcus aureus. In words: Antibiofilm activity against vancomycin-intermediate resistant Staphylococcus aureus ATCC 700699/Mu50 at sub-MIC doses measured after 24 hrs by crystal violet staining based analysis. In kind it is functional.
Series [10] concerns Pseudomonas aeruginosa. Kind of series: Antibacterial activity against Pseudomonas aeruginosa ATCC 47085 assessed as reduction in bacterial growth incubated for 24 hrs by broth microdilution method. In kind it is functional.
The nature of series [11]: Metabolic stability in monkey liver microsomes assessed as metabolic bioavailability at 0.1 uM preincubated for 10 mins followed by NADPH addition and measured upto 60 mins by LC-MS/MS analysis. In kind it is ADME, Macaca mulatta, Microsome. The settings on record: rhesus monkey, time < 70 min.
A short description of series [12]: Metabolic stability in dog liver microsomes assessed as metabolic bioavailability at 0.1 uM preincubated for 10 mins followed by NADPH addition and measured upto 60 mins by LC-MS/MS analysis. In kind it is ADME, Canis lupus familiaris, Microsome. The settings on record: time < 70 min.
For the next series, the system named is NCI-H1299. Kind of series: Cytotoxicity against human NCI-H1299 cells measured after 72 hrs by SRB assay. In kind it is functional, cell-based. The settings on record: NCI-H1299, 72 h.
Series [13] can be described thus: Metabolic stability in mouse liver microsomes assessed as metabolic bioavailability at 0.1 uM preincubated for 10 mins followed by NADPH addition and measured upto 60 mins by LC-MS/MS analysis. Type of series: ADME, Microsome. The settings on record: time < 70 min.
Series [14] can be described thus: Metabolic stability in human liver microsomes assessed as metabolic bioavailability at 0.1 uM preincubated for 10 mins followed by NADPH addition and measured upto 60 mins by LC-MS/MS analysis. In kind it is ADME, Microsome. The settings on record: time < 70 min.
The nature of series [15]: Metabolic stability in rat liver microsomes assessed as metabolic bioavailability at 0.1 uM preincubated for 10 mins followed by NADPH addition and measured upto 60 mins by LC-MS/MS analysis. Type of series: ADME, Microsome. Conditions: time < 70 min.
Series [16] in a line: Toxicity in Galleria mellonella larvae assessed as reduction in animal survival at 20 mg/kg. In kind it is organism-based. The settings on record: in vivo, 80 h.
In series [17] the test system is Staphylococcus aureus. In words: Antibacterial activity against community associated methicillin-resistant Staphylococcus aureus USA400 assessed as reduction in bacterial growth incubated for 24 hrs by broth microdilution method. In kind it is functional.
For series [18], the system named is Enterococcus faecium. Kind of series: Antibacterial activity against Enterococcus faecium Efm-HS0649 assessed as reduction in bacterial growth incubated for 24 hrs by broth microdilution method. In kind it is functional.
Another series has as its system NCI-H1975. Kind of series: Cytotoxicity against human NCI-H1975 cells measured after 72 hrs by SRB assay. In kind it is functional, cell-based. Conditions: NCI-H1975, 72 h.
In series [19] the test system is Enterococcus faecium. Kind of series: Antibacterial activity against glycopeptide-resistant Enterococcus faecium vanB type assessed as reduction in bacterial growth incubated for 24 hrs by broth microdilution method. Type of series: functional.
For series [20], the system named is Staphylococcus aureus. In words: Antibacterial activity against community associated methicillin-resistant Staphylococcus aureus USA300 assessed as reduction in bacterial growth incubated for 24 hrs by broth microdilution method. Type of series: functional.
The subject of series [21] is Enterococcus faecium. Kind of series: Antibacterial activity against Enterococcus faecium Efm-HS06188 assessed as reduction in bacterial growth incubated for 24 hrs by broth microdilution method. Type of series: functional.
Series [22] deals with Streptococcus pyogenes. Kind of series: Antibacterial activity against Streptococcus pyogenes infected in Galleria mellonella larvae infection model assessed as increase in number of surviving larvae at 1 mg/kg pre-infected with bacteria for 1 hr followed by compound addition measured every 12 hrs for 3 days. Type of series: functional, organism-based. The settings on record: time 3.0 day.

Series [23] relates to Streptococcus pyogenes. In words: Antibacterial activity against Streptococcus pyogenes infected in Galleria mellonella larvae infection model assessed as prolongation of median survival time at 1 mg/kg pre-infected with bacteria for 1 hr followed by compound addition measured every 12 hrs for 3 days (reference value: 24 hrs). Type of series: functional. The settings on record: time 3 day.

Regarding `O=[N+]([O-])c1cc(-c2nc(-c3cc(C(F)(F)F)cc(Br)c3O)cs2)[nH]n1`, the minimum inhibitory concentration (MIC) was over 256 µg/mL in the series with Enterococcus faecium [1], 8 µg/mL (≈ 18.4 µM) with Staphylococcus aureus [2] and 4 µg/mL (≈ 9.19 µM) in the series on Streptococcus pyogenes [3].

For `Oc1ccccc1-c1csc(-c2cc(Cl)c(Cl)[nH]2)n1`, the minimum inhibitory concentration (MIC) with Enterococcus faecium [1], in the series with Staphylococcus aureus [2] and with Streptococcus pyogenes [3] was over 256 µg/mL each time.

As to `FC(F)(F)c1cc(Br)cc(-c2csc(-c3[nH]c(Br)c(Br)c3Br)n2)c1`, the values for the MIC in the series with Enterococcus faecium [1], in the series on Staphylococcus aureus [2] and in the series on Streptococcus pyogenes [3] were 32 µg/mL (≈ 52.5 µM), 16 µg/mL (≈ 26.2 µM) and 16 µg/mL (≈ 26.2 µM), respectively.

For the molecule `Cc1cc(Cl)c(O)c(-c2csc(-c3cc(Cl)c(Cl)[nH]3)n2)c1`, the minimal inhibitory concentration (MIC) in the series with Enterococcus faecium [1], in the series with Staphylococcus aureus [2] and with Streptococcus pyogenes [3] was over 256 µg/mL throughout.

As for `Oc1ccc(C(F)(F)F)cc1-c1csc(-c2cc(Cl)c(Cl)[nH]2)n1`, the values for the MIC in the series on Enterococcus faecium [1], with Staphylococcus aureus [2] and in the series with Streptococcus pyogenes [3] were over 256 µg/mL, 4 µg/mL (≈ 10.5 µM) and 4 µg/mL (≈ 10.5 µM), respectively.

For the molecule `Oc1c(F)cc(F)cc1-c1csc(-c2cc(Cl)c(Cl)[nH]2)n1`, the MIC in the series on Enterococcus faecium [1], in the series with Staphylococcus aureus [2] and in the series on Streptococcus pyogenes [3] was over 256 µg/mL each time.

`Oc1c(F)cc(F)cc1-c1csc(-c2[nH]c(Br)c(Br)c2Br)n1`: the minimum inhibitory concentration (MIC) in the series with Enterococcus faecium [1], in the series with Staphylococcus aureus [2] and in the series with Streptococcus pyogenes [3] was over 256 µg/mL throughout.

On to `Oc1c(Br)cc(Br)cc1-c1csc(-c2cc(Br)c(Br)[nH]2)n1`, for which the minimum inhibitory concentration (MIC) in the series on Enterococcus faecium [1] is over 256 µg/mL; in the series on Staphylococcus aureus [2] it was over 256 µg/mL; in the series with Streptococcus pyogenes [3] it was 2 µg/mL (≈ 3.58 µM).

Turning to `O=[N+]([O-])c1cc(-c2nc(-c3cc(Br)cc(Br)c3O)cs2)[nH]n1`, the minimal inhibitory concentration (MIC) is over 256 µg/mL with Klebsiella pneumoniae; 16 µg/mL (≈ 35.9 µM) in the series on Enterococcus faecium [1]; over 256 µg/mL in the series on Acinetobacter baumannii; 8 µg/mL (≈ 17.9 µM) with Staphylococcus aureus [2]; 2 µg/mL (≈ 4.48 µM) in the series with Streptococcus pyogenes [3]; over 256 µg/mL in the series on Pseudomonas aeruginosa [10]. Besides, the Activity in the series with Enterococcus faecium [4], in the series on Pseudomonas aeruginosa [8] and in the series with Staphylococcus aureus [9] was over 60% each time. Moreover, the result in the series with Staphylococcus aureus [5], with Pseudomonas aeruginosa [6] and with Enterococcus faecium [7] was Active.

`Oc1c(Br)cc(C(F)(F)F)cc1-c1csc(-c2cc(Cl)c(Cl)[nH]2)n1`: the results for the MIC in the series with Enterococcus faecium [1], in the series on Staphylococcus aureus [2] and in the series with Streptococcus pyogenes [3] were over 256 µg/mL, 1 µg/mL (≈ 2.18 µM) and at most 0.125 µg/mL, respectively.

As to `Oc1c(Br)cc(C(F)(F)F)cc1-c1csc(-c2[nH]c(Br)c(Br)c2Br)n1`, the MIC in the series on Klebsiella pneumoniae is over 256 µg/mL; in the series on Enterococcus faecium [1], at most 0.125 µg/mL; in the series with Acinetobacter baumannii, over 256 µg/mL; with Staphylococcus aureus [2], 2 µg/mL (≈ 3.2 µM); in the series with Streptococcus pyogenes [3] it was at most 0.125 µg/mL; in the series with Staphylococcus aureus [17], 16 µg/mL (≈ 25.6 µM). The MIC with Enterococcus faecium [18] was at most 0.125 µg/mL; in the series with Enterococcus faecium [19] it was 0.5 µg/mL (≈ 0.799 µM); with Pseudomonas aeruginosa [10], over 256 µg/mL; with Staphylococcus aureus [20] it was 16 µg/mL (≈ 25.6 µM); with Enterococcus faecium [21], at most 0.125 µg/mL. Moreover, the Fh at 1 h, 0.1 µM in series [11] was found to be 36.9%; in series [12], 18.4%; in [13], 43.3%; in series [14], 2.26%; in series [15], 65.7%. Moreover, the IC50 amounted to 8.25 µg/mL (≈ 13.2 µM) in the series with NCI-H1299 and 4.4 µg/mL (≈ 7.03 µM) in the series with NCI-H1975. Besides, the Activity in the series on Enterococcus faecium [4] is recorded as over 60%; in series [16] it was “Non-Toxic”; in the series on Pseudomonas aeruginosa [8], over 60%; in the series with Staphylococcus aureus [9], over 60%. For the same molecule, the outcome in the series with Staphylococcus aureus [5], with Pseudomonas aeruginosa [6] and in the series with Streptococcus pyogenes [22] was Active. Besides, the MST in the series with Streptococcus pyogenes [23] is 36 h.

For `COc1ccc(O)c(-c2csc(-c3cc(Cl)c(Cl)[nH]3)n2)c1`, the minimal inhibitory concentration (MIC) in the series with Enterococcus faecium [1], in the series with Staphylococcus aureus [2] and in the series with Streptococcus pyogenes [3] was over 256 µg/mL in each case.
